The record followed here is publication PMC4004800, “Preclinical evaluation of marketed sodium channel blockers in a rat model of myotonia discloses promising antimyotonic drugs” (Experimental Neurology, 2014).

T1 sequence (P35499 whole entry): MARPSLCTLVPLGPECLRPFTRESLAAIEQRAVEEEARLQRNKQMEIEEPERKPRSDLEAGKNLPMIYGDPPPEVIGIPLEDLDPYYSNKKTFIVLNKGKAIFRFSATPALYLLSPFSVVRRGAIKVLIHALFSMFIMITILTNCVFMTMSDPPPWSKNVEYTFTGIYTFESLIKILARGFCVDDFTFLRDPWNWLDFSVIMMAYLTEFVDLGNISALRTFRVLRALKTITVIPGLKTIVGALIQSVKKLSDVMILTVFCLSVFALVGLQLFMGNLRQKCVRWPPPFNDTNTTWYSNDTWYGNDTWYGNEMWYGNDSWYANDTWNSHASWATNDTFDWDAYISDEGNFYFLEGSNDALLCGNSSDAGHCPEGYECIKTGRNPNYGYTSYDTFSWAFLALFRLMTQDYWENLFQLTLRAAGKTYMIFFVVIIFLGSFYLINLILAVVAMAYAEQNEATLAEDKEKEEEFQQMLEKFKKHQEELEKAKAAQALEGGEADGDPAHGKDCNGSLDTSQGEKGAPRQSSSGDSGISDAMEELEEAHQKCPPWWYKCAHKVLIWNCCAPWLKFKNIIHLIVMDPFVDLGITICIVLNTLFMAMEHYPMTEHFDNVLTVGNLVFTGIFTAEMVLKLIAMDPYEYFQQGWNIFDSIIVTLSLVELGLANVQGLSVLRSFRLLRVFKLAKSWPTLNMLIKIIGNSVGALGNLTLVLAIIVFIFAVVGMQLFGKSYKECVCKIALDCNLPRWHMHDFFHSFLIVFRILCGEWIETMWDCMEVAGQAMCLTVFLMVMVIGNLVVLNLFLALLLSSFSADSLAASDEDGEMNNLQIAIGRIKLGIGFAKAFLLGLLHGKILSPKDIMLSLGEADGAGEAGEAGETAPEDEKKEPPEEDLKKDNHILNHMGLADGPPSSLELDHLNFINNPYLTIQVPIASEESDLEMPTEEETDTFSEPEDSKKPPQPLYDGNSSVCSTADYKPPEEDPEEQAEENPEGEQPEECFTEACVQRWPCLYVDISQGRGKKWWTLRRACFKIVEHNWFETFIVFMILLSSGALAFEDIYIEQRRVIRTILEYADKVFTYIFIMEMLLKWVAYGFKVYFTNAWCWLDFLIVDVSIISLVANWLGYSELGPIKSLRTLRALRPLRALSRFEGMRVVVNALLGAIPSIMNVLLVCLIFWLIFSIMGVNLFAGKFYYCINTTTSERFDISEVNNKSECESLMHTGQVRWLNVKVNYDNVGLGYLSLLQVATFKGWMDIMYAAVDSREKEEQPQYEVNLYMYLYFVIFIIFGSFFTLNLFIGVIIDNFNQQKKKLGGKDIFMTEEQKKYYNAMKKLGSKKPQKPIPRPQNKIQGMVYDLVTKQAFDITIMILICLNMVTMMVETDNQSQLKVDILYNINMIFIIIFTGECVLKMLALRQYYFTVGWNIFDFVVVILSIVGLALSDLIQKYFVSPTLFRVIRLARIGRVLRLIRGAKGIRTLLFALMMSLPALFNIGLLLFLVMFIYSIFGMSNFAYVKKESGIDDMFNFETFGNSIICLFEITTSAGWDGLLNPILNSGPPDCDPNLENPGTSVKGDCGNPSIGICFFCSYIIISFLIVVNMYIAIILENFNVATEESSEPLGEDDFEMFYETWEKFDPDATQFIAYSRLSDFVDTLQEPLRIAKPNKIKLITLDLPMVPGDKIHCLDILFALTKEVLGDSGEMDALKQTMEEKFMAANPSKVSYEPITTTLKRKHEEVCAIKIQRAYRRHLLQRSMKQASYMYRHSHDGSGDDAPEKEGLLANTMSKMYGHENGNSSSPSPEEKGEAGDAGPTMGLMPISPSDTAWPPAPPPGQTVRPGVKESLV

One assay has as its target T1, hNav1.4 (human skeletal muscle sodium channel) (Homo sapiens, UniProt P35499).
T1 construct: gene SCN4A; alpha subunit permanently transfected in HEK293 cells; no beta subunit mentioned
Description: whole-cell patch clamp, sodium current in HEK293. The assay is classed as cell-based. The following applies: holding potential -90 mV, 5 ms pulses to -30 mV at 50 Hz (myotonia-like), tonic + use-dependent block; read by eye from curve; 20-22 °C, pH 7.4; read-out: IC50 (μM) / 50 Hz, hp - 90 mV. From the text: whole-cell patch clamp, sodium current in HEK293 on hNav1.4 (human skeletal muscle sodium channel)
In general terms: Patch clamp records ionic current or voltage across a cell membrane.
With Lubeluzole, the IC50 was approximately 0.3 µM.

Staying with this assay, now noted: read-out: IC50 (μM) / 50 Hz, hp - 90 mV.
`O=C(NCC1CCCCN1)c1cc(OCC(F)(F)F)ccc1OCC(F)(F)F` (stereo not shown) [Flecainide]: the IC50 is approximately 4 µM.
Same read-out and setting: to `Nc1nc2ccc(OC(F)(F)F)cc2s1` [Riluzole] belongs approximately 0.9 µM; to `NC(=O)N1c2ccccc2C2OC2c2ccccc21` (stereo not shown) [epo-CBZ], approximately 70 µM.
As for `NC(=O)N1c2ccccc2C=Cc2ccccc21` [Carbamazepine], the IC50 is approximately 100 µM.
Take `CCCNCC(O)COc1ccccc1C(=O)CCc1ccccc1` (stereo not shown) [Propafenone]: the IC50 is approximately 1.5 µM.
On the same count and under the same terms, to `Cc1cccc(C)c1OCC(C)N` (stereo not shown) [Mexiletine] belongs approximately 20 µM.
